Laboratory results as given in ChEMBL document CHEMBL1136608, “Azaindoles: moderately basic P1 groups for enhancing the selectivity of thrombin inhibitors” (Bioorg Med Chem Lett, 2003).

Key:
[1] = target: Serine protease 1 (Homo sapiens, UniProt P07477); test: Inhibition of Trypsin
[2] = target: Prothrombin (Homo sapiens, UniProt P00734); test: Inhibition of Thrombin
[3] = species on record: Homo sapiens; test: In vitro concentration required to double the human activated partial thromboplastin time (2x APTT); format: functional
[4] = Half-life in dog after oral administration at 1 mg/kg; format: ADME, organism-based, Canis lupus familiaris; design: dose 1 mg/kg, route oral; conditions: in vivo
[5] = Cmax in dog after oral administration at 1 mg/kg; format: ADME, organism-based, Canis lupus familiaris; design: dose 1 mg/kg, route oral; conditions: in vivo
[6] = Area under curve was determined in dog after oral administration at 1 mg/kg; format: ADME, organism-based, Canis lupus familiaris; design: dose 1 mg/kg, route oral; conditions: in vivo
[7] = tested on: Canis familiaris; test: Cmax in dog after oral administration at 1 mg/kg; Below the level of quantitation; format: ADME, organism-based, Canis lupus familiaris; design: dose 1 mg/kg, route oral; conditions: in vivo

Sequence of Serine protease 1 (P07477 whole entry): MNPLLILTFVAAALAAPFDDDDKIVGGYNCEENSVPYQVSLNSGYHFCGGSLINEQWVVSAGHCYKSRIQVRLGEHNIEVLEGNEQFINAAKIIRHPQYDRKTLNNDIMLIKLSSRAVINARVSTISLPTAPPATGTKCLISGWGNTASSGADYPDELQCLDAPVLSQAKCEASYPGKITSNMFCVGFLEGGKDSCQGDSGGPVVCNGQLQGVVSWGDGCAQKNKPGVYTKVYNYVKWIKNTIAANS

| Ki [1] [µM] | Structure (SMILES) | Concentration [3] [µM] | other results |
| --- | --- | --- | --- |
| 290 | Cc1cnc(NCCc2ccccn2)c(=O)n1CC(=O)NCc1ccc2[nH]ccc2c1 | – | – |
| > 100 | Cc1cnc(NCCc2ccccc2)c(=O)n1CC(=O)NCc1cnc2[nH]ccc2c1 | – | – |
| > 1000 | Cc1cnc(NCCc2ccccn2)c(=O)n1CC(=O)NCc1ccc2[nH]ccc2n1 | 0.8 | Cmax [7]: Below the level of quantitation |
| 140 | Cc1cnc(NCCc2ccccn2)c(=O)n1CC(=O)NCc1cnc2[nH]ccc2c1 | – | half-life [4]: 2.42 h; Ki [2]: 0.0066 µM; Cmax [5]: 2100 nM; AUC [6]: 9.1 µM·h |
| 200 | Cc1cnc(NCCc2ccccn2)c(=O)n1CC(=O)NCc1cc2cc[nH]c2cn1 | 0.4 | Cmax [5]: 180 nM; AUC [6]: 0.17 µM·h |

The next lines start with the compound.

| Structure (SMILES) | Ki [1] [µM] | Concentration [3] [µM] | other results |
| --- | --- | --- | --- |
| Cc1cnc(NCCc2ccccc2)c(=O)n1CC(=O)NCc1ccc2nccn2c1C | 6.8 | – | – |
| Cc1cnc(NCCc2ccccc2)c(=O)n1CC(=O)NCc1ccc2cc[nH]c2c1 | > 100 | – | Ki [2]: 0.83 µM |
| Cc1nc(N)ccc1CNC(=O)Cn1c(C)cnc(NCCc2ccccc2)c1=O [L-375378] | – | 0.41 | half-life [4]: 3.18 h; Cmax [5]: 5370 nM; AUC [6]: 23.1 µM·h |
| Cc1cnc(NCCc2ccccc2)c(=O)n1CC(=O)NCc1ccc2nccn2c1 | 100 | – | Ki [2]: 0.14 µM |
| Cc1cnc(NCCc2ccccn2)c(=O)n1CC(=O)NCc1c[nH]c2nccc-2c1 | – | 0.95 | – |
| Cc1cnc(NCCc2ccccc2)c(=O)n1CC(=O)NCc1ccc2[nH]ccc2c1 | > 100 | – | – |
| Cc1cnc(NCCc2ccccc2)c(=O)n1CC(=O)NCc1ccn2ccnc2c1 | 120 | – | Ki [2]: 0.27 µM |
| Cc1cnc(NCCc2ccccc2)c(=O)n1CC(=O)NCc1ccc2[nH]cnc2c1 | 2 | – | – |
| Cc1cnc(NCCc2ccccc2)c(=O)n1CC(=O)NCc1ccc2[nH]ccc2n1 | > 100 | – | – |
| Cc1cnc(NCCc2ccccc2)c(=O)n1CC(=O)NCc1cc2cc[nH]c2cn1 | 95 | 2.63 | half-life [4]: 3.6 h; Cmax [5]: 2690 nM; AUC [6]: 15.2 µM·h |
